Entries after “also recorded” stand apart in the source; their conditions may differ.
Key:
[1] = tested on: HaCaT (human keratinocyte) cell line; assay: MTT cell viability assay on HaCaT cells; type: cell-based; conditions: for IC50: Homo sapiens, HaCaT, 48 h; for HaCaT IC50: MTT, 48 h incubation, 10,000 cells/well, '-' = no cytotoxicity at 20 µg/mL
Protocol: (§1) For the investigation of the cytotoxic effect of nucleoside analogues we used healthy human keratinocyte (HaCaT) and tumorous squamous carcinoma SCC-VII cell lines. In the experiments, a standard citotoxicity assay, the MTT assay, was used in a 96-well plate. Importantly, different cell numbers were used in the case of the two different cell lines. The HaCaT cells were seeded 10^4/well concentration while the SCC-VII cells were seeded 5000/well concentration on the plate. In both cases the cells were treated with the nucleoside analogues at ~50% confluence.
The HaCaT cell line was derived from human skin, the cells spontaneously transformed in vitro during long time incubation. Cells were cultured in DMEM medium (Biocenter, Szeged, Hungary) containing 10% fetal bovine serum (FBS, Hyclon, Logan, UT) and 1% antibiotic-antimycotic mix (Penicillin–Streptomycin–Neomycin).
(§2) Cell cultures had been kept under the same conditions during the experiments. Cells were stored at 37 °C, 95% humidity, and 5% CO2 in an incubator. During the MTT-assay, different starter cell number was used because of the cell cycle differences; HaCaT was started with 10.000/well meanwhile SCC VII with 5000/well. After passage, 24 h was assured for the cells to the adhesion. Then incubated with the compounds for 48 h. The experiments were performed in 96 well plates.
(§3) For the dilution of different concentrations of nucleoside analogues were prepared with DMSO 1% (v/v) and DMEM / DMEM-F12/Ham’s F12 cell culture medium.
(§4) After three days of incubation in the cell culture flask, cells were trypsinised into single cell suspensions. Aliquots (200 μL) of each cell suspension were placed in wells of 96-well-plates (Biocenter, Szeged, Hungary). Preliminary tests were conducted with cell numbers 5000 (SCC-VII) and 10,000 (HaCaT) per well. We have been tested five concentrations of each nucleoside analogues (20-10-5-2.5-1.25 µg/mL). The nucleoside analogues were dissolved in DMSO (1 v/v%) and DMEM/ DMEM-F12/Ham’s F12 were added to the wells to produce the required concentrations and the cells were similarly incubated for a further 48 h.
(§5) MTT (Sigma Aldrich, Budapest, Hungary) solution (0.5 mg/mL in PBS) 100 µL was added to each well. The plates were incubated for 1–2 h at 37 ^◦C, the wells aspirated, and MTT formazan extracted with 100 µL of DMSO aided by gentle agitation on a shaker. After 10 min at room temperature, the absorbances were read at 570 nm by an automatic plate reader (WALLAC Victor 2 1420 spectrophotometer), the instrument having been blanked beforehand on a row to which cells had not been added. Percentage viability (respiratory competence) of the population of cells in each well was expressed as: (Absorbance of treated cells/Absorbance of control cells) × 100. IC50 values of the nucleoside analogues were determined by Graphpad.

[2] = tested on: SCC-VII (mouse squamous carcinoma) cell line; assay: MTT cell viability assay on SCC-VII cells; type: cell-based; conditions: for SCC IC50: MTT, 48 h incubation, 5000 cells/well, '-' = no cytotoxicity at 20 µg/mL; for IC50: Mus musculus, 48 h; for SI (selectivity index): HaCaT IC50/SCC IC50
Protocol: as §1
SCC-VII is a carcinoma tumor that originally arose in the abdominal wall of C3H mice in Dr. Herman Suit’s laboratory at Harvard University, Boston, Massachusetts. SCC VII cells were grown in Dulbecco’s Modified Eagle’s Medium Nutrient Mixture (DMEM-HAM’S F12) (Sigma-Aldrich) supplemented with 2 mM L-glutamine, 23 mM NaHCO3, 100 U/mL penicillin, 100 U/mL streptomycin 1% non-essential amino acids and 10% fetal bovine serum.
as §2, §3, §4, §5

Row | SMILES | IC50 [1] | HaCaT IC50 [1] | SCC IC50 [2] | IC50 [2] | SI (selectivity index) [2]
1 | CC(=O)OC[C@H]1O[C@@H](SC[C@@H]2[C@@H](O[Si](C)(C)C(C)(C)C)[C@H](n3ccc(=O)[nH]c3=O)O[C@@H]2CO[Si](C)(C)C(C)(C)C)[C@H](OC(C)=O)[C@@H](OC(C)=O)[C@@H]1OC(C)=O [Compound 1] | > 20 µg/mL | no cytotoxic effect; also recorded: no cytotoxicity; also recorded: complete loss of activity | no cytotoxic effect; also recorded: no cytotoxicity; also recorded: complete loss of activity | > 20 µg/mL | 
2 | CCCSC[C@@H]1[C@@H](O[Si](C)(C)C(C)(C)C)[C@H](n2ccc(=O)[nH]c2=O)O[C@@H]1CO[Si](C)(C)C(C)(C)C [Compound 2] | 12.6 ± 0.22 µM | remarkable toxic effect | remarkable toxic effect | 11.8 ± 0.22 µM | 1.07
3 | CC(=O)OC[C@H]1O[C@@H](SC[C@@H]2[C@@H](O[Si](C)(C)C(C)(C)C)[C@H](n3cc(C)c(=O)[nH]c3=O)O[C@@H]2CO[Si](C)(C)C(C)(C)C)[C@H](OC(C)=O)[C@@H](OC(C)=O)[C@@H]1OC(C)=O [Compound 3] | 22.4 ± 2.91 µM | quite toxic | no cytotoxic effect; also recorded: no cytotoxicity; also recorded: complete loss of activity | > 20 µg/mL | 
4 | CC(=O)OCC1OC(SCC2C(CO[Si](C)(C)C(C)(C)C)OC(n3cc(C)c(=O)[nH]c3=O)C2O[Si](C)(C)C(C)(C)C)C(OC(C)=O)C(OC(C)=O)C1OC(C)=O (stereo not drawn) [Compound 4] | > 20 µg/mL | no cytotoxic effect; also recorded: no cytotoxicity; also recorded: complete loss of activity | no cytotoxic effect; also recorded: no cytotoxicity; also recorded: complete loss of activity | > 20 µg/mL | 
5 | CCCSC[C@@H]1[C@@H](O[Si](C)(C)C(C)(C)C)[C@H](n2cc(C)c(=O)[nH]c2=O)O[C@@H]1CO[Si](C)(C)C(C)(C)C [Compound 5, 1-[3’-Deoxy-3’-C-(n-propylsulfanylmethyl)-2’,5’-di-O-(tert-butyldimethylsilyl)-β-D-xylofuranosyl]-thymine] | 22.2 ± 1.7 µM | remarkable toxic effect | remarkable toxic effect | 15.2 ± 1 µM | 1.46
6 | Cc1cn([C@@H]2O[C@H](CO[Si](C)(C)C(C)(C)C)[C@@H](O)[C@H]2O[Si](C)(C)C(C)(C)C)c(=O)[nH]c1=O [Compound 6T, 2’,5’-di-O-tert-butyldimethylsilyl-ribothymidine] | 15.6 ± 4.45 µM | remarkable toxicity | remarkable toxicity | 18.8 ± 0.74 µM | 0.83
7 | CCSC[C@@H]1[C@@H](O[Si](C)(C)C(C)(C)C)[C@H](n2cc(C)c(=O)[nH]c2=O)O[C@@H]1CO[Si](C)(C)C(C)(C)C [Compound 8, 1-[3’-Deoxy-3’-C-(ethylsulfanylmethyl)-2’,5’-di-O-(tert-butyldimethylsilyl)-β-D-xylofuranosyl]-thymine] | 16.9 ± 0.55 µM |  |  | 15.5 ± 0.59 µM | 1.09
8 | Cc1cn([C@@H]2O[C@H](CO[Si](C)(C)C(C)(C)C)[C@H](CSC(C)C)[C@H]2O[Si](C)(C)C(C)(C)C)c(=O)[nH]c1=O [Compound 9, 1-[3’-Deoxy-3’-C-(i-propylsulfanylmethyl)-2’,5’-di-O-(tert-butyldimethylsilyl)-β-D-xylofuranosyl]-thymine] | 22.7 ± 1.34 µM |  |  | 15.2 ± 0.48 µM | 1.49
9 | Cc1cn([C@@H]2O[C@H](CO[Si](C)(C)C(C)(C)C)[C@H](CSCC(C)C)[C@H]2O[Si](C)(C)C(C)(C)C)c(=O)[nH]c1=O [Compound 11, 1-[3’-Deoxy-3’-C-(i-butylsulfanylmethyl)-2’,5’-di-O-(tert-butyldimethylsilyl)-β-D-xylofuranosyl]-thymine] | 15.5 ± 2.14 µM |  |  | 23.5 ± 0.12 µM | 0.66
10 | Cc1cn([C@@H]2O[C@H](CO[Si](C)(C)C(C)(C)C)[C@H](CSC(C)(C)C)[C@H]2O[Si](C)(C)C(C)(C)C)c(=O)[nH]c1=O [Compound 12, 1-[3’-Deoxy-3’-C-(t-butylsulfanylmethyl)-2’,5’-di-O-(tert-butyldimethylsilyl)-β-D-xylofuranosyl]-thymine] | > 34.9 µM |  |  | 31.1 ± 0.79 µM | 
11 | CCCCCCSC[C@@H]1[C@@H](O[Si](C)(C)C(C)(C)C)[C@H](n2cc(C)c(=O)[nH]c2=O)O[C@@H]1CO[Si](C)(C)C(C)(C)C [Compound 13, 1-[3’-Deoxy-3’-C-(n-hexylsulfanylmethyl)-2’,5’-di-O-(tert-butyldimethylsilyl)-β-D-xylofuranosyl]-thymine] | 22.9 ± 0.57 µM |  |  | 15.9 ± 0.32 µM | 1.44
12 | CCCCCCCCSC[C@@H]1[C@@H](O[Si](C)(C)C(C)(C)C)[C@H](n2cc(C)c(=O)[nH]c2=O)O[C@@H]1CO[Si](C)(C)C(C)(C)C [Compound 14, 1-[3’-Deoxy-3’-C-(n-octylsulfanylmethyl)-2’,5’-di-O-(tert-butyldimethylsilyl)-β-D-xylofuranosyl]-thymine] | 26.4 ± 0.37 µM |  |  | 26 ± 0.76 µM | 1.02
13 | CCCCCCCCCCCCSC[C@@H]1[C@@H](O[Si](C)(C)C(C)(C)C)[C@H](n2cc(C)c(=O)[nH]c2=O)O[C@@H]1CO[Si](C)(C)C(C)(C)C [Compound 15, 1-[3’-Deoxy-3’-C-(n-dodecylsulfanylmethyl)-2’,5’-di-O-(tert-butyldimethylsilyl)-β-D-xylofuranosyl]-thymine] | > 20 µg/mL | complete loss of activity | complete loss of activity | > 20 µg/mL | 
14 | Cc1cn([C@@H]2O[C@H](CO[Si](C)(C)C(C)(C)C)[C@H](CSCc3ccccc3)[C@H]2O[Si](C)(C)C(C)(C)C)c(=O)[nH]c1=O [Compound 16, 1-[3’-Deoxy-3’-C-(benzylsulfanylmethyl)-2’,5’-di-O-(tert-butyldimethylsilyl)-β-D-xylofuranosyl]-thymine] | 14.3 ± 0.36 µM |  |  | 14.6 ± 0.19 µM | 0.98
15 | Cc1cn([C@@H]2O[C@H](CO[Si](C)(C)C(C)(C)C)[C@H](CSCCO)[C@H]2O[Si](C)(C)C(C)(C)C)c(=O)[nH]c1=O [Compound 17, 1-[3’-Deoxy-3’-C-(2-hydroxyethylsulfanylmethyl)-2’,5’-di-O-(tert-butyldimethylsilyl)-β-D-xylofuranosyl]-thymine] | 14.6 ± 0.82 µM |  |  | 16 ± 0.17 µM | 0.91
16 | CCCCSC[C@@H]1[C@@H](O[Si](C)(C)C(C)(C)C)[C@H](n2ccc(=O)[nH]c2=O)O[C@@H]1CO[Si](C)(C)C(C)(C)C [Compound 18, 1-[3’-Deoxy-3’-C-(n-butylsulfanylmethyl)-2’,5’-di-O-(tert-butyldimethylsilyl)-β-D-xylofuranosyl]-uracil] | 14.4 ± 1.59 µM |  |  | 10.9 ± 0.18 µM | 1.32
17 | CCSC[C@@H]1[C@@H](O)[C@H](n2cc(C)c(=O)[nH]c2=O)O[C@@H]1CO [Compound 19, 1-[3’-Deoxy-3’-C-(n-ethylsulfanylmethyl)-β-D-xylofuranosyl]-thymine] | > 20 µg/mL | did not show any cytotoxic activity; also recorded: no activity | did not show any cytotoxic activity; also recorded: no activity | > 20 µg/mL | 
18 | CN(Cc1cnc2nc(N)nc(N)c2n1)c1ccc(C(=O)N[C@@H](CCC(=O)O)C(=O)O)cc1 [Methotrexate, reference compound] | 290.4 ± 2.76 µM |  |  | 216 ± 2.33 µM | 

From paper PMC6600393, “Synthesis and Cytostatic Effect of 3’-deoxy-3’-C-Sulfanylmethyl Nucleoside Derivatives with D-xylo Configuration” (Molecules, 2019)
